For the assay, the system named is Radical scavenging activity. Description: Antioxidant activity assessed as DPPH free radical scavenging activity at 20 uM after 30 min by UV-vis spectrophotometric analysis relative to propyl gallate. Type of assay: functional.
`COc1ccc(-c2oc3cc(O)cc(O)c3c(=O)c2O[C@@H]2O[C@H](CO)[C@@H](O)[C@H](O)[C@H]2O)cc1OC`: the Activity is 49.1%.
In the case of `O=c1c(O[C@@H]2O[C@H](CO)[C@@H](O)[C@H](O)[C@H]2O)c(-c2ccc(O)c(O)c2)oc2cc(O)cc(O)c12`, the Activity worked out at 71.8%.
Under `NCCCCCCCCCCCC(=O)O` stands 87.1%.

Source of the values: ChEMBL document CHEMBL3046854, “Lupeol-3-O-decanoate, a new triterpene ester from Cadaba farinosa Forssk. growing in Saudi Arabia” (Med Chem Res, 2013).
